Legend:
Assay type in all cases: physicochemical
[1] = Stability study: storage of the polymorph under ambient conditions, XRPD afterwards
From the text: The HCl1 polymorph, which was a hard bulky material, was placed in a closed Amber bottle and stored under ambient conditions. Four months later, the bottle was opened, and the hard bulky material was now a free flowing powder. An XRPD was taken of this free flowing powder.

[2] = Thermogravimetric analysis (TGA); details: ramp 15° C./minute
Protocol: The sample pan was tared, and sample of (S)-3-aminomethyl-7-(3-hydroxy-propoxy)-3H-benzo[c][1,2]oxaborol-1-ol polymorph form HCl4 prepared in Example 2, Method-B, was placed in the pan. The temperature was ramped at a rate of 15° C./minute.
The TGA thermogram of polymorph form HCl3 was acquired using a TA Instruments Q500 Thermogravimetric Analyzer. The sample pan was tared, and sample of (S)-3-aminomethyl-7-(3-hydroxy-propoxy)-3H-benzo[c][1,2]oxaborol-1-ol polymorph form HCl3 prepared as described above was placed in the pan. The temperature was ramped at a rate of 15° C./minute. A weight-loss of 4.7% between 27 and 104° C. was observed and is associated with water-loss due to dehydration.

[3] = Form screen with competitive ripening experiments (Raman/XPRD grouping); details: for relative polymorph stability (additional studies incl. single crystal form screen): 48 solvents/solvent mixtures, four crystallization modes, room temperature
Protocol: Alternative methods for preparing polymorph form HCl1, form HCl2, form HCl4, and form HCl5 involve the use of a form screen procedure. The input material for the screen was a nonsolvated form of the hydrochloride salt of (S)-3-aminomethyl-7-(3-hydroxy-propoxy)-3H-benzo[c][1,2]oxaborol-1-ol. […] Screening was conducted in a total of 48 solvents/solvent mixtures using four different crystallization modes listed below. The solvents included water, methanol, 1-propanol, nitromethane, acetonitrile, dimethylsulfoxide, acetone, 2-butanone, dichloromethane, methyl acetate, […], ethyl acetate, chlorobenzene, tetrahydrofuran, 1,4-dioxane, isopropyl ether, toluene, cyclohexane, heptanes, 1-butanol, 2-propanol, trifluoroethanol, dimethyl carbonate, t-butyl methyl ether, isopropyl acetate, ethanol, 1-methoxy-2-propanol, cyclohexanone, dimethyl formamide, 2-methoxyethyl ether, methanol:5 vol % H2O, acetonitrile:5 vol % H2O, acetone:5 vol % H2O, tetrahydrofuran:5 vol % H2O, 2-propanol:5 vol % H2O, methanol:10 vol % H2O, acetonitrile:10 vol % H2O, acetone:10 vol % H2O, tetrahydrofuran:10 vol % H2O, dioxane:10 vol % H2O, 2-propanol:10 vol % H2O, isopropanol+10% dimethylsulfoxide, acetonitrile+10% dimethylsulfoxide, and n-methylpyrrolidone.
Vapor diffusions were also conducted in selected solvents. The four crystallization modes used were: • temperature-cycled ripening of slurries • rapid cooling of room-temperature solutions • room-temperature evaporation of solutions • vapor diffusion of solvent/anti-solvent combinations Characterization:
All samples from the screen were isolated and analyzed by Raman spectroscopy. The samples were then grouped based on Raman spectral match. Representative samples from each of the groups were further analyzed by additional analytical techniques as appropriate (XPRD, DSC, TG-IR, PLM, etc.).
The temperature-cycle, rapid cool, and vapor diffusion samples formed a single group (Group A/Input) based on Raman and XPRD analyses. Most evaporative samples also produced Group A. However, five additional groups (Group B, Group C, Group D, Group E, and Group F) were produced from evaporative and evaporative scale-up experiments based on Raman analyses. These groups were selected for further analysis and/or scale-up.
Group B was an evaporative experiment from nitromethane produced in very low yields (<3 mg). This sample was analyzed by Raman, XPRD, and DSC. Insufficient sample was present for TG-IR (thermogravimetric-infrared spectroscopy). Six scale-up experiments were set up and each produced an amorphous or oily solid. […]
Group C was produced from two evaporative experiments from acetone and 2-butanone in very low yields (<1 mg). This sample was analyzed by Raman, and insufficient sample was present for further analysis. […]

[4] = Differential scanning calorimetry (DSC); details: ramp 15° C./minute, loose lid aluminum pan
Protocol: Instrument: TA Instruments Thermal Analysis System, Model DSC Q100
Key Operating Parameters:
Module—DSC Standard Cell FC
Method 1: Equilibrate at 25.00° C.
The DSC thermogram was acquired using a TA Instruments Q100 Differential Scanning calorimeter, as indicated above. A sample of (S)-3-aminomethyl-7-(3-hydroxy-propoxy)-3H-benzo[c][1,2]oxaborol-1-ol polymorph form HCl4 prepared in Example 2, Method B, was accurately weighed out directly into an aluminum DSC pan. The pan was sealed by applying pressure by hand and pushing each part of the pan together (also known as a loose lid configuration). The temperature was ramped at a rate of 15° C./minute. An endothermic transition having an onset of 178.1° C. was measured, and is associated with a decomposition event.

[5] = Storage of Form HCl5 (sealed vial / room temperature)
Protocol: A solution of isopropanol containing 20% water by volume was added to a vial containing approximately 25 mg of polymorph form HCl4. The resulting mixture was stirred as the temperature was cycled between 0 and 40° C. over the course of 48 hours. The solution was isolated by filtration and evaporated to dryness. The freshly isolated product was verified to be Form HCl5.

## Cl.NC[C@H]1OB(O)c2c(OCCCO)cccc21 [polymorph form HCl1, (S)-3-aminomethyl-7-(3-hydroxy-propoxy)-3H-benzo[c][1,2]oxaborol-1-ol.HCl]
[1]; closed Amber bottle, ambient conditions, four months
  solid form after storage (XRPD): converted into the HCl4 form during storage

## Cl.NC[C@H]1OB(O)c2c(OCCCO)cccc21 [polymorph form HCl3, (S)-3-aminomethyl-7-(3-hydroxy-propoxy)-3H-benzo[c][1,2]oxaborol-1-ol.HCl]
[2]; between 27 and 104° C.
  weight-loss (water-loss due to dehydration): 4.7%

## Cl.NC[C@H]1OB(O)c2c(OCCCO)cccc21 [polymorph form HCl4, (S)-3-aminomethyl-7-(3-hydroxy-propoxy)-3H-benzo[c][1,2]oxaborol-1-ol.HCl]
[1]; from conversion during four months storage at ambient conditions
  relative polymorph stability: more stable polymorph than HCl1
[3]
  relative polymorph stability (additional studies incl. single crystal form screen): most stable polymorph
[3]; listed as input material
  relative polymorph stability (additional studies incl. single crystal form screen): most stable form at room temperature
[3]; physical and/or chemical stability, general statement
  stability compared to other polymorphs of the HCl salt: increased stability
[4]
  onset of endothermic transition associated with a decomposition event: 178.1 °C
[2]; between 162 and 214° C.
  stepwise weight-loss (water-loss due to reversible chemical transformation): 6.4%
[2]
  temperature beyond which further decomposition is observed: > 214 °C

## Cl.NC[C@H]1OB(O)c2c(OCCCO)cccc21 [polymorph form HCl5, (S)-3-aminomethyl-7-(3-hydroxy-propoxy)-3H-benzo[c][1,2]oxaborol-1-ol.HCl]
[3]; sample from very slow evaporation from acetone with 20% water
  stability of isolated form (Raman): unstable and converted to Group E
[5]; sealed vial, at least 7 days
  form after storage: conversion to Form HCl3
[5]; stored at room temperature
  stability on storage: unstable when stored at room temperature and converts to Form HCl3
